Some test systems named below: A549; CAKI-1; HL-60; MDA-MB-435; MDA-N; Malme-3M; NCI-H226; OVCAR-3; OVCAR-5; PC-3; RPMI-8226; SF-539; SK-MEL-28; SR; SW-620; U-251; UACC-257; UACC-62; SNB-75; SK-OV-3.
Common to all, as to test: NCI anticancer screen, dose series, 48 h

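Values below derive from 48-hour exposures of cells grown in 96-well plates, with endpoints linearly interpolated between the two concentrations bracketing the appropriate inhibition level. GI50 is the concentration that inhibits growth by half.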 The source made the active and inactive calls. Rule as the data show it: active = GI50 up to about 1.1 µM and inactive = higher.

Take `Cc1cc(=O)oc2c(OS(C)(=O)=O)c(OS(C)(=O)=O)ccc12`: the GI50 with A549, in the experiment with CAKI-1, in the experiment with HL-60, with MDA-MB-435, in the experiment with MDA-N and in the experiment on Malme-3M was > 100 µM (inactive) in each case. The GI50 with NCI-H226, in the experiment with OVCAR-3, in the experiment on OVCAR-5, in the experiment with PC-3, with RPMI-8226 and with SF-539 was > 100 µM (inactive) throughout. Further, the GI50 in the experiment with SK-MEL-28, with SR, in the experiment on SW-620, with U-251, with UACC-257 and in the experiment on UACC-62 was > 100 µM (inactive) each time.

Consider `COC(=O)c1cc(C)ccc1/C=C1\Cc2c(C)cc(C)cc2C1=O`, for which the GI50 in the experiment on A549 is 99.3 µM (inactive); with CAKI-1, 30.6 µM (inactive); in the experiment with HL-60, 21.9 µM (inactive); in the experiment with MDA-MB-435, 59 µM (inactive); in the experiment with MDA-N it was 25.5 µM (inactive); in the experiment on Malme-3M it was > 63.4 µM (inactive). The GI50 in the experiment with NCI-H226 is 35.4 µM (inactive); in the experiment with OVCAR-3 it was 70.6 µM (inactive); in the experiment on OVCAR-5, > 43.9 µM (inactive); in the experiment with PC-3, > 39.8 µM (inactive); in the experiment with RPMI-8226 it was 10.3 µM (inactive); in the experiment with SF-539, 15.6 µM (inactive). Further, the GI50 is 99.1 µM (inactive) with SK-MEL-28; 16.2 µM (inactive) with SNB-75; 20 µM (inactive) with SR; > 100 µM (inactive) in the experiment with SW-620; 14 µM (inactive) in the experiment on U-251; > 18.3 µM (inactive) with UACC-257. Moreover, the GI50 with UACC-62 was 6.59 µM (inactive).

In the case of `CN(C)c1ncnc2c1ncn2C1C=CC(COS(N)(=O)=O)C1` (stereo unspecified), the GI50 in the experiment on A549, with CAKI-1, in the experiment with HL-60, in the experiment with MDA-MB-435, in the experiment on MDA-N and with Malme-3M was > 100 µM (inactive) throughout. Further, the GI50 in the experiment on OVCAR-3 was > 100 µM (inactive); in the experiment on PC-3, 60.7 µM (inactive); with RPMI-8226, > 100 µM (inactive); in the experiment with SF-539, > 100 µM (inactive); in the experiment with SK-MEL-28 it was > 100 µM (inactive); in the experiment with SK-OV-3 it was > 100 µM (inactive). Also, the GI50 with SNB-75, in the experiment on SR, with SW-620, in the experiment with U-251, with UACC-257 and with UACC-62 was > 100 µM (inactive) each time.

For the compound `Cc1cc2c(cc1C(=O)c1ccc(N)cc1)OCO2`, the GI50 in the experiment with A549 is 39.6 µM (inactive); in the experiment with CAKI-1, 24.5 µM (inactive); in the experiment with HL-60, 49.9 µM (inactive); in the experiment with MDA-MB-435 it was 7.82 µM (inactive); in the experiment on MDA-N, 12.4 µM (inactive); with Malme-3M, 33.8 µM (inactive). In addition, the GI50 was 0.347 µM (active) with OVCAR-3; 27 µM (inactive) in the experiment on OVCAR-5; 43.6 µM (inactive) in the experiment with PC-3; 36.3 µM (inactive) in the experiment with RPMI-8226; 27.2 µM (inactive) in the experiment with SF-539; 24.5 µM (inactive) in the experiment with SK-OV-3. In addition, the GI50 in the experiment on SR is 5.08 µM (inactive); in the experiment with SW-620, 34.8 µM (inactive); in the experiment on U-251 it was 24.9 µM (inactive); in the experiment with UACC-257, > 100 µM (inactive); with UACC-62, 31 µM (inactive).

On to `C=C1C(=O)O[C@H]2/C=C(/C)C3=CC(=O)[C@@](C)(C[C@@H](OC(=O)/C(C)=C\C)C12)O3` (stereo partly specified), for which the GI50 in the experiment on A549 was 4.05 µM (inactive); with CAKI-1 it was 0.185 µM (active); with HL-60, < 0.0451 µM (active); in the experiment with MDA-MB-435 it was 1.21 µM (inactive); in the experiment with MDA-N it was 0.684 µM (active); in the experiment with NCI-H226, 2.59 µM (inactive). Moreover, the GI50 with OVCAR-5 was 2.4 µM (inactive); in the experiment on PC-3 it was 2.48 µM (inactive); in the experiment with RPMI-8226, 0.0589 µM (active); in the experiment on SF-539 it was 1.93 µM (inactive); with SK-MEL-28, 0.708 µM (active); with SK-OV-3, 12.2 µM (inactive). In addition, the GI50 in the experiment with SNB-75 was 8.69 µM (inactive); in the experiment on SR, 0.083 µM (active); in the experiment with SW-620, 0.128 µM (active); in the experiment on U-251 it was 2.43 µM (inactive); in the experiment on UACC-257, 1.73 µM (inactive); in the experiment on UACC-62, 0.891 µM (active).

Consider `O=C1CSC(c2cccc(Oc3ccccc3)c2)N1c1cccc(Cl)c1Cl` (stereo unspecified), for which the GI50 in the experiment with A549 was > 100 µM (inactive); in the experiment on CAKI-1 it was 65.2 µM (inactive); in the experiment on HL-60 it was 22.7 µM (inactive); in the experiment on MDA-MB-435, 13.7 µM (inactive); in the experiment on MDA-N it was 21 µM (inactive); with Malme-3M, 30.4 µM (inactive). Also, the GI50 was 28.5 µM (inactive) in the experiment on NCI-H226; 30.5 µM (inactive) in the experiment with OVCAR-3; 33.5 µM (inactive) with OVCAR-5; 25.7 µM (inactive) with PC-3; 22.9 µM (inactive) in the experiment with SF-539; 50 µM (inactive) with SK-MEL-28. The GI50 is 65.9 µM (inactive) with SK-OV-3; 41 µM (inactive) in the experiment on SNB-75; 19.8 µM (inactive) in the experiment with SR; 29.1 µM (inactive) in the experiment with SW-620; 18.2 µM (inactive) in the experiment with U-251; 24.4 µM (inactive) in the experiment with UACC-257. The GI50 with UACC-62 was 17.8 µM (inactive).

For `CCOC(=O)C(NC(=O)C(CCCCNP(=O)(OCC)OCC)NC(=O)C(C)NC(C)=O)C(C)C` (stereo unspecified), the GI50 with A549, with CAKI-1, with HL-60, in the experiment with MDA-MB-435, in the experiment with MDA-N and in the experiment on Malme-3M was > 100 µM (inactive) each time. Moreover, the GI50 in the experiment on NCI-H226, in the experiment on OVCAR-3, with OVCAR-5, in the experiment on PC-3, in the experiment with RPMI-8226 and in the experiment on SF-539 was > 100 µM (inactive) throughout. The GI50 in the experiment with SK-MEL-28, in the experiment on SNB-75, in the experiment on SR, in the experiment on SW-620, in the experiment on U-251 and in the experiment on UACC-257 was > 100 µM (inactive) in each case.

In the case of `O=C1c2ccccc2C(=O)N1NC1=NCCN1`, the GI50 in the experiment on A549, in the experiment on CAKI-1, with HL-60, in the experiment on MDA-MB-435, with MDA-N and in the experiment with Malme-3M was > 100 µM (inactive) in each case. In addition, the GI50 with NCI-H226, with OVCAR-3, in the experiment on OVCAR-5, with PC-3, in the experiment with RPMI-8226 and with SF-539 was > 100 µM (inactive) throughout. Besides, the GI50 in the experiment with SK-MEL-28, in the experiment with SK-OV-3, with SR, in the experiment with SW-620, with U-251 and with UACC-257 was > 100 µM (inactive) in each case. For the same compound, the GI50 in the experiment with UACC-62 is > 100 µM (inactive).

Source of the values: ChEMBL document CHEMBL1201862, “PubChem BioAssay data set” (2004).
